Measured values reported in US5294713A, “2-piperazinone compounds and their use” (Takeda Chemical Industries, Ltd., priority 1991, dated 1994).

Assays:
GPIIb/IIIa = biological target: T1, GPIIb/IIIa (Homo sapiens, UniProt P05106+P08514); assay: Inhibition of fibrinogen binding to GPIIb/IIIa; conditions: purified GPIIb/IIIa from HEL cells, biotinylated human fibrinogen 1 nM
T1 construct: Purification of GPIIb/IIIa from HEL Cells; endogenous in cells; host or cells: HEL cells (HEL 92.1.7; ATCC TIB180), human erythroleukemia; GPIIb/IIIa solubilized in Triton X-100, purified and adsorbed on microtiter plates
T1 sequence (P08514 32-887 limits assumed): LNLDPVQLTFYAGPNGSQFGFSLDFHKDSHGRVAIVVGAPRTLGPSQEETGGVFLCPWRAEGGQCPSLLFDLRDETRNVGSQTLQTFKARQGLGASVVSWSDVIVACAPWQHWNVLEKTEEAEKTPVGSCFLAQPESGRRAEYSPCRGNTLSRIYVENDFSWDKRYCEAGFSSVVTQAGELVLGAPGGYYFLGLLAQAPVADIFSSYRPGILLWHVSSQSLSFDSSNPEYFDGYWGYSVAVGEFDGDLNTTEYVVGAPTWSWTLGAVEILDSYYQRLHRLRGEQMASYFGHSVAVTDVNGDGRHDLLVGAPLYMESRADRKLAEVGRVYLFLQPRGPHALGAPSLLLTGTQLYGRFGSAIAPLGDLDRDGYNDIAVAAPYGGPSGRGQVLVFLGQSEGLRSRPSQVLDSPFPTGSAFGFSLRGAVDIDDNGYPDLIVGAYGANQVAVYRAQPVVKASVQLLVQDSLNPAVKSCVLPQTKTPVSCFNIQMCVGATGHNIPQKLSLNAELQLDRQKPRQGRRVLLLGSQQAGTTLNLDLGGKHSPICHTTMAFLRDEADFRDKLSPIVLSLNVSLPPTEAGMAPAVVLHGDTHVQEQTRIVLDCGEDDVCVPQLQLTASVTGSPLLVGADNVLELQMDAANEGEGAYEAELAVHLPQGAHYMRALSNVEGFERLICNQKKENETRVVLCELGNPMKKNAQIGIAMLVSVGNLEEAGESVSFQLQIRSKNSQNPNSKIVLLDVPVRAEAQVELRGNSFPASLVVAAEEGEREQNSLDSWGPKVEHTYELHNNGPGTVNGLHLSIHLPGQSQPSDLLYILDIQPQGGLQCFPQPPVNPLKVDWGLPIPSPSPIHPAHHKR
T1 sequence (P08514 891-1039 limits assumed): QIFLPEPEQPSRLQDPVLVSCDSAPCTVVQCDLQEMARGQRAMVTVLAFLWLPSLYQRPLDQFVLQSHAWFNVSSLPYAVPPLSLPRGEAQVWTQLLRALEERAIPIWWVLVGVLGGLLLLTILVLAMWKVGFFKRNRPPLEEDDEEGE
T1 sequence (P05106 27-788): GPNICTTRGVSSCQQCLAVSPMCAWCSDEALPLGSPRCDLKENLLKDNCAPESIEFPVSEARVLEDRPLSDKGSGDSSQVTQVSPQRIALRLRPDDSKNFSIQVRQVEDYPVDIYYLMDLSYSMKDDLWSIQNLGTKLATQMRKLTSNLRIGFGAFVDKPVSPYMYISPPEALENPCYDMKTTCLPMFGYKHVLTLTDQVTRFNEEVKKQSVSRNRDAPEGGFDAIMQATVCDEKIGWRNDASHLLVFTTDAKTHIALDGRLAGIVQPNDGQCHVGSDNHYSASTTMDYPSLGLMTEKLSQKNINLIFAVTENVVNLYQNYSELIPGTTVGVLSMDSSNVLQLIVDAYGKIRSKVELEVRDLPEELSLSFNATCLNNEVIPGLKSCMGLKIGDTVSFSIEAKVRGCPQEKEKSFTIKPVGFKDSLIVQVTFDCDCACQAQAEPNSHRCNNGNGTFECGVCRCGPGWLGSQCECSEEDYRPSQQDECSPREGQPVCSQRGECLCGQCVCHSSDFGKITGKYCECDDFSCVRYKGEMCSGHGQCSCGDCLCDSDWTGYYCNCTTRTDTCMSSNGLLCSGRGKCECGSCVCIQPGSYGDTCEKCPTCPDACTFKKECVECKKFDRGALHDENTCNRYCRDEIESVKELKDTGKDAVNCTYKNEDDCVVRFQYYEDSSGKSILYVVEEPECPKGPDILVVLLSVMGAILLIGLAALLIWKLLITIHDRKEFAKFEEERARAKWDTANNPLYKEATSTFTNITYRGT
Procedure: (1) Cultibation of Cells Derived from Human Erythroleukemia (Hereinafter Referred to as HEL Cells)
HEL cells (HEL 92. 1. 7; ATCC No. TIB180) were purchased from ATCC (Rockville, Md., U.S.A.). The cells were grown in RPMI medium containing 40 mM N-2-hydroxyethylpiperazin-N'-2-ethanesulfonic acid (hereinafter referred to as HEPES) (pH 7.0), 100 μg/ml of Kanamycin and 10% FCS (GIBCO Laboratories, Grand Island, N.Y., U.S.A.). Cultivation was conducted at 37° C in the presence of 5% CO2.
(2) Purification of GPIIb/IIIa from HEL Cells
Purification of GPIIb/IIIa was performed using the following modification of the method of L. A. Fitzgerald et al. [J. Biol. Chem., 262, 3936 (1987)]. The purification was conducted at room temperature unless specifically mentioned. From 7 L of the culture broth on 7th day of the cultibation (floating cells), the cells were collected by centrifugation (1,000×g, 10 minutes, 4° C.), which were washed with 20 mM Tris-HCl(pH 7.5) containing 1 mM EDTA and 150 mM NaCl. The cells were suspended in 80 ml of a solubilized buffer [20 mM Tris-HCl, 150 mM NaCl, 1% Triton X-100, 1 mM MgCl2, 1 mM CaCl2, 0.1 mM (p-amidinophenyl)methanesulfonyl fluoride (hereinafter referred to as APMSF), 10 nM leupeptin, 0.02% NaN3, pH 7.4)].
The cell suspension was gently mixed for 30 minutes at 4° C. to solubilize GPIIb/IIIa. The suspension was subjected to centrigugation (100,000×g, one hour) at 4° C. to remove cell debris to obtain a cell-extraction solution (60 ml). […] The fraction which passed through the column was charged on the ConA-Sepharose column (Pharmacia LKB, .phi. 1.0×15 cm, 20 ml/hr) to allow GPIIb/IIIa to be adsorbed thereon, then GPIIb/IIIa was eluted with column buffer solution containing 0.5 M methyl α-D-mannopyranoside. The eluate thus obtained was allowed to pass through the DEAE-Toyopearl 650 M column (Tosoh, .phi. 1.6×10.5 cm, 20 ml/hr) equilibrated with the same column buffer to remove contaminating proteins.
(3) Biotinylation of Human Fibrinogen
Biotinylation of human fibrinogen was performed by the following procedure [I. F. Charo et al., J. Biol. Chem., 266, 1415 (1991)]. Human fibrinogen (Kabi Vitrum AB, Stockholm, Sweden) was dissolved in PBS so as to make its concentration 5 mg/ml. The solution was dialyzed overnight at 4° C. against 1 L of 0.1 M NaHCO3 -0.1 M NaCl (pH 8.2). Insolubles were then removed by centrifugation (100,000×g, 30 minutes), and the solution was diluted with the same buffer to the protein concentration of 1 mg/ml. To thus-diluted solution was added powdery sulfo-N-hydroxysuccinimidobiotin (Pierce Chemical Co., Rockford, Ill., U.S.A.) so as to make its final concentration 0.2 mg/ml and gently mixed to perform biotinylate fibrinogen. The resultant was subjected to dialysis against 50 mM Tris-HCl (pH 7.4) - 100 mM NaCl-0.05% NaN3. The dialysate was distributed and stored at 4° C.
(4) Inhibition Assay for Fibrinogen Binding to GPIIb/IIIa
This experiment was performed using a modification of the method described in the above-mentioned I. F. Charo et al. report. The purified GPIIb/IIIa was diluted with the buffer A (20 mM Tris-HCl, 150 mM NaCl, 1 mM CaCl2, 0.02% NaN3, pH 7.4) to a concentration of 1 μg/ml. The diluted solution was added to 96-well microtiter plates (MaxiSorp; Nunc, Denmark) at 100 μl per well, which were left standing at 4° C. overnight to allow GPIIb/IIIa to be adsorbed on the microplates. The plate was aspirated, and then 150 μl of the buffer B (35 mg/ml BSA, 50 mM Tris-HCl, 100 mM NaCl, 2 mM CaCl2, 0.02%, NaN3, pH 7.4) was added to the plate, and blocking was performed at 30° C. for 2 hours. The plate was washed twice with 250 μl each of the buffer C (1 mg/ml BSA, 50mM Tris-HCl, 100 mM NaCl, 2 mM CaCl2, pH 7.4).

[1] = test system: guinea pig platelet aggregation; assay: Inhibitory action on guinea pig platelet aggregation (ADP-stimulated PRP); type: cell-based; conditions: Cavia porcellus, ADP final concentration 1 μM, in vitro, read-out: Inhibitory effect on platelet aggregation in vitro (IC50) guinea pig
Procedure: TEST EXAMPLE 1 [I] Inhibitory action on guinea pig platelet aggregation
Blood was collected in 3.15% sodium citrate (1 ml for 9 ml of blood) by cardiac puncture from male guinea pig. The blood was centrifuged at 1000 g for 3 to 5 seconds at room temperature to obtain platelet rich plasma (PRP). The PRP was further centrifuged at 1000 g for 10 minutes to obtain platelet poor plasma (PPP). The number of platelets was measured using an automatic blood cell counter (Sysmex E2500, Toaiyou-densi). The platelet density of PRP was adjusted to 400,000/μl with PPP. Platelet aggregation was measured using an 8-channel aggregometer (NBS HEMA TRACER VI Niko Bioscience Inc.). The PRP (250 μl ) was preincubated at 37° C. for 2 minutes. and then incubated for 2 minutes. with 25 μl of physiological saline or various concentrations of test drugs followed by stimulation with ADP (final concentration: 1 μM). By comparing the maximum aggregation rates of the control and those of test drugs, the inhibitory rates were determined. The results are shown in [Table 1]-[Table 3].

[2] = test system: human platelet aggregation; assay: Inhibitory action on human platelet aggregation (ADP-stimulated PRP); type: cell-based; conditions: ADP final concentration 3 μM, in vitro, read-out: Inhibitory effect on platelet aggregation in vitro (IC50) man
Procedure: [II] Inhibitory action on human platelet aggregation
Human blood was collected in 3.8% sodium citrate (1 ml for 9 ml of blood) by venipuncture from healthy male volunteers. The blood was centrifuged at 1000 g for 3 to 5 seconds at room temperature to obtain platelet rich plasma (PRP). The PRP was further centrifuged at 1000 g for 10 minutes to obtain platelet poor plasma (PPP). The number of platelets was measured using an automatic blood cell counter (Sysmex E2500, Toaiyou-densi). The platelet density of PRP was adjusted to 300,000/μl with PPP. Platelet aggregation was measured using an 8-channel aggregometer (NBS HEMA TRACER VI Niko Bioscience Inc.). The PRP (250 μl) was preincubated at 37° C. for 2 minutes. and then incubated for 2 minutes. with 25 μl of physiological saline or various concentrations of test drugs followed by stimulation with ADP (final concentration: 3 μM). By comparing the maximum aggregation rates of the control and those of test drugs, the inhibitory rates were determined. The results are shown in [Table 1]-[Table 3].

| SMILES | IC50 (GPIIb/IIIa) [nM] | IC50 [1] [nM] | IC50 [2] [nM] |
| --- | --- | --- | --- |
| N=C(N)NC[C@H]1CC[C@H](C(=O)NCC(=O)N2CCN(CC(=O)O)C(=O)[C@@H]2CC(=O)O)CC1 [compound 5] | 20 | 3800 | 1100 |
| N=C(N)NCCCCC(=O)NCC(=O)N1CCN(CC(=O)O)C(=O)[C@@H]1CC(=O)O [compound 6] | 46 | – | – |
| N=C(N)NCc1ccc(C(=O)NCC(=O)N2CCN(CC(=O)O)C(=O)[C@@H]2CC(=O)O)cc1 [compound 8] | 18 | 1300 | 660 |
| N=C(N)NCc1cccc(C(=O)NCC(=O)N2CCN(CC(=O)O)C(=O)[C@@H]2CC(=O)O)c1 [compound 9] | 73 | – | – |
| N=C(N)Nc1ccc(C(=O)NCC(=O)N2CCN(CC(=O)O)C(=O)[C@@H]2CC(=O)O)cc1 [compound 10] | 4.8 | 340 | 260 |
| CN(CC(=O)N1CCN(CC(=O)O)C(=O)[C@@H]1CC(=O)O)C(=O)[C@H]1CC[C@H](CNC(=N)N)CC1 [compound 12] | 10 | 1100 | 700 |
| N=C(N)NC[C@H]1CC[C@H](C(=O)NCC(=O)N2CCN(CC(=O)O)C(=O)[C@@H]2Cc2ccccc2)CC1 [compound 16] | 32 | 4600 | 990 |
| N=C(N)NC[C@H]1CC[C@H](C(=O)NCC(=O)N2CCN(CC(=O)O)C(=O)[C@@H]2CC(N)=O)CC1 [compound 22] | 23 | 4400 | 720 |
| N=C(N)NC[C@H]1CC[C@H](C(=O)NCC(=O)N2CCN(CC(=O)O)C(=O)[C@@H]2CCC(=O)O)CC1 [compound 32] | 15 | 3100 | 960 |
| N=C(N)NC[C@H]1CC[C@H](C(=O)NCC(=O)N2CCN(CC(=O)O)C(=O)C2)CC1 [compound 35] | – | 5200 | 1100 |
| N=C(N)NC[C@H]1CC[C@H](C(=O)N[C@@H](Cc2ccccc2)C(=O)N2CCN(CC(=O)O)C(=O)C2)CC1 [compound 37] | 7.9 | 7000 | 520 |
| N=C(N)N1CCC(C(=O)NCC(=O)N2CCN(CC(=O)O)C(=O)[C@@H]2CC(=O)O)CC1 [compound 38] | 21 | 9600 | 1600 |
| N=C(N)c1ccc(C(=O)NCC(=O)N2CCN(CC(=O)O)C(=O)[C@@H]2CC(=O)O)cc1 [compound 39] | 1 | 165 | 110 |
| N=C(N)c1ccc(CC(=O)NCC(=O)N2CCN(CC(=O)O)C(=O)[C@@H]2CC(=O)O)cc1 [compound 45] | 8.1 | 1600 | 1500 |
| NCCc1ccc(C(=O)NCC(=O)N2CCN(CC(=O)O)C(=O)[C@@H]2CC(=O)O)cc1 [compound 46] | 2.5 | 130 | 230 |
| NCc1ccc(C(=O)NCC(=O)N2CCN(CC(=O)O)C(=O)[C@@H]2CC(=O)O)cc1 [compound 47] | – | – | 4200 |
| NCCCc1ccc(C(=O)NCC(=O)N2CCN(CC(=O)O)C(=O)[C@@H]2CC(=O)O)cc1 [compound 48] | 15 | – | – |
| N=C(N)Nc1ccc(C(=O)N2CCC[C@H]2C(=O)N2CCN(CC(=O)O)C(=O)[C@@H]2CC(=O)O)cc1 [compound 50] | 21 | 345 | – |
| CN(CC(=O)N1CCN(CC(=O)O)C(=O)[C@@H]1CC(=O)O)C(=O)c1ccc(NC(=N)N)cc1 [compound 51] | – | 370 | 460 |
| N=C(N)c1ccc(C(=O)NCC(=O)N2CCN([C@@H](Cc3ccccc3)C(=O)O)C(=O)[C@@H]2CC(=O)O)cc1 [compound 54] | 6.1 | 4100 | 660 |
| N=C(N)c1ccc(C(=O)NCC(=O)N2CCN(CC(=O)O)C(=O)C2)cc1 [compound 55] | 0.42 | 210 | 94 |
| COC(=O)CN1CCN(C(=O)CNC(=O)c2ccc(C(=N)N)cc2)[C@@H](CC(=O)O)C1=O [compound 57] | 20 | 1750 | 2600 |
| COC(=O)C[C@H]1C(=O)N(CC(=O)O)CCN1C(=O)CNC(=O)c1ccc(C(=N)N)cc1 [compound 59] | 0.49 | 56 | 48 |
| COC(=O)C[C@H]1C(=O)N(CC(=O)O)CCN1C(=O)CNC(=O)c1ccc(CCN)cc1 [compound 60] | 0.91 | 78 | 93 |
| N=C(N)c1ccc(C(=O)NCC(=O)N2CCN(CC(=O)O)C(=O)[C@@H]2Cc2ccccc2)cc1 [compound 61] | – | 160 | 130 |
| CC(C)(C)C(=O)OCOC(=O)CN1CCN(C(=O)CNC(=O)c2ccc(C(=N)N)cc2)[C@@H](Cc2ccccc2)C1=O [compound 63] | 8.9 | 460 | 720 |
| CCC(C)[C@H]1C(=O)N(CC(=O)O)CCN1C(=O)CNC(=O)c1ccc(NC(=N)N)cc1 (stereo partly shown) [compound 65] | 98 | 4600 | – |
| N=C(N)c1ccc(C(=O)NCC(=O)N2CCN(CC(=O)O)C(=O)[C@@H]2CCC(=O)O)cc1 [compound 66] | 0.2 | 66 | 52 |
| COC(=O)CC[C@H]1C(=O)N(CC(=O)O)CCN1C(=O)CNC(=O)c1ccc(CCN(C)C)cc1 [compound 81] | 37 | 2300 | – |
